Source: patent US20080293699A1, “Inhibitors of thapsigargin-induced cell death” (priority 2007, published 2008)
Read-outs that look alike come from different tables or passages of the source.

Tested on: CSM14.1 cells
Assay: Primary HTS assay: ATP content (ATPlite) of undifferentiated CSM14.1 cells challenged with thapsigargin
Format: cell-based, rat
Details: thapsigargin-induced death of undifferentiated CSM14.1, ATP content
From the text: For convenience, and because transient reductions in temperature that might be associated with large screening experiments could restore Large T activity, we elected to develop our HTS using undifferentiated CSM14.1 cells, with the plan to then confirm hits using differentiated cells. For monitoring cell death, we used a commercially available bioluminescence reagent that determines intracellular ATP content, without requirement for complicated cell processing steps (ATPlite, Perkin Elmer). Thus, ATP was used as a surrogate indicator of cell survival for the primary assay.
Undifferentiated or differentiated CSM14.1 cells were plated at a density of 3,000 cells/well in 40 μL DMEM medium (containing 10% serum, 1 mM L-glutamine, and antibiotics) in 96 well flat-bottom microtiter plates composed of polystrene (Greiner Bio One, polystyrene, white wall, flat bottom, lumitrac, high binding). After overnight incubation at 32° C., DMSO (0.5% v/v) or 100 uM Salubrinal (Sal) in DMSO was delivered. After 2 hrs, 5 uL of a stock solution of 150 uM TG in DMEM medium containing 0.75% (v:v) DMSO to achieve a final concentration of approximately 15 uM. After culturing for 24 hrs, cellular ATP content was measured by addition of 20 uL per well of ATPlite solution (Perkin-Elmer), and then the plates were incubated for three minutes at room temperature, before reading with a Microplate Luminometer (BD Pharmingen Moonlight model 3096).
To determine the reproducibility of the ATP content assay, we prepared a 96-well plate in which half the wells received TG plus DMSO (assay minimum) and half received TG plus Salubrinal (assay maximum), then performed the ATP content studies using undifferentiated CSM14.1 cells (FIG. 6). CSM14.1 cells were cultured overnight at 3,000 cells per well in 96-well flat-bottom plates, then either DMSO (0.5% final concentration) or Salubrinal (100 μM) in DMSO (0.5% final concentration) was added to half the well (48 each). After two hrs, TG was added to all wells (15 μM final). Cells were cultured for 24 hrs, then the ATP content was measured using the ATPlite luminogenic assay. We then adapted this assay to the high-throughput environment, using a Biomex™ FX liquid handler for automated dispensing of assay components into microwells of 96-well plates. First, undifferentiated CSM14.1 cells were grown at 32° C. in DMEM medium supplemented with 10% fetal bovine serum (FBS), 1% penicillin/streptomycin, and 1% L-glutamine in 150 mm×25 mm polystyrene culture dishes to produce approximately 3×10^6 cells. Second, CSM14.1 cells were recovered from cultures by trypsinization when at 80-90% confluence, and suspended at 7.5×10^4 cells/mL in DMEM medium containing 2% FBS, 1 mM L-glutamine, and antibiotics 100 IU penicillin 100 μg/ml streptomycin. Third, the cell suspension was then delivered at 40 μL per well of 96-well plastic microtiter plates (Greiner Bio One, polystyrene, white wall, flat bottom, lumitrac, high binding, cat #655074), and the plates were cultured overnight at 32° C. in a humidified atmosphere in 95% air: 5% CO2. Fourth, using the automated liquid handler, 5 μL of test compounds in 10% DMSO were added to wells in columns 2-11 of the 96-well plates (leaving columns 1 and 12 intact) to achieve an approximate final concentration of 15 μg/mL test compound and a final concentration of 1% DMSO. Fifth, 5 μL of 1 mM Salubrinal in a solution of 10% DMSO:90% DMEM was added to wells of column 1/rows A-D of each plate, while 5 μL of 10% DMSO:90% DMEM solution was added to wells corresponding to column 1/rows E-H and to all wells in column 12. Sixth, the plates were returned to culture.

[1] = one value given, read-out: IC50
[2] = first assay, read-out: IC50 (μM), first value
[3] = second assay (value in bold), read-out: IC50 (μM), value from a second assay
[4] = Rattus norvegicus, one value given, read-out: IC50

Row | Compound | IC50 [1] | IC50 [2] | IC50 [3] | IC50 [4]
1 | CCN(CC)c1ccc(C2=Nc3ccccc3NC3=C2C(=O)CC(c2ccc(Cl)cc2)C3)cc1 (racemic) [MLS-0292126] | 16.5 µM | – | – | –
2 | COc1ccc(C2CC(=O)C3=C(C2)Nc2ccccc2NC3c2cccc(O)c2)cc1OC (centres unmarked) [Compound 3192-5300] | 53.5 ± 3.45 µM | – | – | –
3 | CCOc1ccc(C2CC(=O)C3=C(C2)Nc2ccccc2NC3c2cc(F)ccc2Cl)cc1OC (centres unmarked) [Compound 5991-0620] | > 200 µM | – | – | –
4 | COc1ccccc1CN1CCN(C(=O)c2cc(OC)c(OC)c(OC)c2)CC1 [Compound 5397316] | > 200 µM | – | – | –
5 | CCn1c2ccccc2c2cc(CN3CCN(C(=O)c4cc(OC)c(OC)c(OC)c4)CC3)ccc21 [Compound 5397372] | – | 18.9 ± 0.568 µM | 13.5 ± 2.02 µM | –
6 | O=C(C(c1ccccc1)c1ccccc1)N1CCN(Cc2ccccc2[N+](=O)[O-])CC1 [Compound 5948365] | 19.5 µM | – | – | –
7 | CCn1c2ccccc2c2cc(CN3CCN(C(=O)c4cccs4)CC3)ccc21 [Compound 5951613] | – | 16.74 ± 0.158 µM | 12.7 ± 1.11 µM | –
8 | COc1ccc(CN2CCN(C(=O)c3ccc(-c4ccccc4)cc3)CC2)c(OC)c1 [Compound 5955734] | – | 23.8 µM | 16.5 ± 1.47 µM | –
9 | CSc1ccc(C2Nc3ccccc3NC3=C2C(=O)CC(c2ccccc2)C3)cc1 (centres unmarked) [Compound 5963958] | 12.5 ± 0.179 µM | 18.6 ± 9.14 µM | 12.5 ± 0.179 µM | –
10 | COc1ccc(C2CC(=O)C3=C(C2)Nc2ccccc2NC3c2cccc(Cl)c2)cc1 (centres unmarked) [Compound 5969327, 11-(3-chlorophenyl)-3-(4-methoxyphenyl)-2,3,4,5,10,11-hexahydro-1H-dibenzo[b,e][1,4]diazepin-1-one] | – | – | – | 21.7 ± 1.07 µM
11 | CCN(CC)c1ccc(C2Nc3ccccc3NC3=C2C(=O)CC(c2ccc(OC)cc2)C3)cc1 (centres unmarked) [Compound 5969590] | 11.4 ± 1.49 µM | – | – | –
12 | COc1ccc(Br)cc1CN1CCN(C(=O)c2ccc(-c3ccccc3)cc2)CC1 [Compound 5990041] | – | 12.8 ± 0.318 µM | 14.2 ± 1.2 µM | –
13 | CCOc1ccc(CN2CCN(C(=O)c3ccc(-c4ccccc4)cc3)CC2)cc1 [Compound 5990076, 1-(4-biphenylylcarbonyl)-4-(4-ethoxybenzyl)piperazine] | – | – | – | > 200 µM
14 | COc1ccc(OC)c(CN2CCN(C(=O)c3ccc(-c4ccccc4)cc3)CC2)c1 [Compound 5990137] | – | 17.5 ± 0.675 µM | 13.9 ± 1.06 µM | –
15 | COc1ccccc1CN1CCN(C(=O)c2ccc(-c3ccccc3)cc2)CC1 [Compound 5996087, 1-(4-biphenylylcarbonyl)-4-(2-methoxybenzyl)piperazine] | – | – | – | 25 to 50 µM
16 | CCn1c2ccccc2c2cc(CN3CCN(C(=O)c4ccc(OC)c(OC)c4)CC3)ccc21 [Compound 6033352] | – | 13.4 ± 0.248 µM | 13.8 ± 0.548 µM | –
17 | CCn1c2ccccc2c2cc(CN3CCN(C(=O)c4ccc([N+](=O)[O-])cc4)CC3)ccc21 [Compound 6034674] | – | 15 ± 0.495 µM | 11.5 ± 0.501 µM | –
18 | COc1cccc(CN2CCN(C(=O)c3ccc(-c4ccccc4)cc3)CC2)c1OC [Compound 6035098] | – | 19.8 ± 0.721 µM | 16.6 ± 2.03 µM | –
19 | COc1ccc(C2CC(=O)C3=C(C2)Nc2ccccc2NC3c2ccccc2OC(C)C)cc1 (centres unmarked) [Compound 6043556, 11-(2-isopropoxyphenyl)-3-(4-methoxyphenyl)-2,3,4,5,10,11-hexahydro-1H-dibenzo[b,e][1,4]diazepin-1-one] | – | – | – | 24 ± 2.31 µM
20 | COc1ccc(C2CC(=O)C3=C(C2)Nc2ccccc2NC3c2c(F)cccc2Cl)cc1 (centres unmarked) [Compound 6044487] | 15.3 ± 1.51 µM | – | – | –
21 | CCOc1cccc(C2Nc3ccccc3NC3=C2C(=O)CC(c2ccc(OC)cc2)C3)c1 (centres unmarked) [Compound 6044673] | 21.2 ± 0.362 µM | 20.2 ± 0.781 µM | 21.2 ± 0.362 µM | –

Row | Compound | IC50 [1] | IC50 [2] | IC50 [3] | IC50 [4]
22 | COc1ccc(C2CC(=O)C3=C(C2)Nc2ccccc2NC3c2ccc(O)cc2)cc1 (centres unmarked) [Compound 6045744, 11-(4-hydroxyphenyl)-3-(4-methoxyphenyl)-2,3,4,5,10,11-hexahydro-1H-dibenzo[b,e][1,4]diazepin-1-one] | – | – | – | > 200 µM
23 | Cc1ccc(C2Nc3ccccc3NC3=C2C(=O)CC(c2ccc(Cl)cc2)C3)cc1 (centres unmarked) [Compound 6047795] | 11 ± 1.04 µM | – | – | –
24 | CC(C)Oc1ccccc1C1Nc2ccccc2NC2=C1C(=O)CC(c1ccc(Cl)cc1)C2 (centres unmarked) [Compound 6047998] | 8.09 ± 0.832 µM | – | – | –
25 | CCOc1cc(C2Nc3ccccc3NC3=C2C(=O)CC(c2ccc(OC)cc2)C3)cc(Br)c1O (centres unmarked) [Compound 6048306] | 18.2 ± 1.93 µM | – | – | –
26 | COc1ccc(C2Nc3ccccc3NC3=C2C(=O)CC(c2ccc(Cl)cc2)C3)cc1 (centres unmarked) [Compound 6049070, 3-(4-chlorophenyl)-11-(4-methoxyphenyl)-2,3,4,5,10,11-hexahydro-1H-dibenzo[b,e][1,4]diazepin-1-one] | – | – | – | 12.5 ± 0.13 µM
27 | COc1ccc(C2CC(=O)C3=C(C2)Nc2ccccc2NC3c2ccc(C(C)C)cc2)cc1 (centres unmarked) [Compound 6049861] | 10.3 ± 1.28 µM | – | – | –
28 | O=C1CC(c2ccccc2)CC2=C1C(c1ccccc1Cl)Nc1ccccc1N2 (centres unmarked) [Compound 6065973] | > 200 µM | – | – | –
29 | CCCCOc1ccccc1C1Nc2ccccc2NC2=C1C(=O)CC(c1ccccc1)C2 (centres unmarked) [Compound 6066511] | 19.2 ± 2.16 µM | – | – | –
30 | COc1ccc(C2CC(=O)C3=C(C2)Nc2ccccc2NC3c2ccc(NC(C)=O)cc2)cc1 (centres unmarked) [Compound 6067345] | > 100 µM | – | – | –
31 | COc1ccc(C2CC(=O)C3=C(C2)Nc2ccccc2NC3c2ccccc2Cl)cc1OC (centres unmarked) [Compound 6076307, 11-(2-chlorophenyl)-3-(3,4-dimethoxyphenyl)-2,3,4,5,10,11-hexahydro-1H-dibenzo[b,e][1,4]diazepin-1-one] | – | – | – | 41.7 ± 0.916 µM
32 | COc1ccc(C2CC(=O)C3=C(C2)Nc2ccccc2NC3c2ccc(F)c(F)c2)cc1 (centres unmarked) [Compound 6079090, 11-(3,4-difluorophenyl)-3-(4-methoxyphenyl)-2,3,4,5,10,11-hexahydro-1H-dibenzo[b,e][1,4]diazepin-1-one] | – | – | – | 21.7 ± 0.247 µM
33 | COc1ccc(C2CC(=O)C3=C(C2)Nc2ccccc2NC3c2c(Cl)cccc2Cl)cc1 (centres unmarked) [Compound 6079349] | 31.5 ± 2.84 µM | – | – | –
34 | COc1ccc(C2CC(=O)C3=C(C2)Nc2ccccc2NC3c2ccc(C)cc2)cc1OC (centres unmarked) [Compound 6105705, 3-(3,4-dimethoxyphenyl)-11-(4-methylphenyl)-2,3,4,5,10,11-hexahydro-1H-dibenzo[b,e][1,4]diazepin-1-one] | – | – | – | 25 ± 0.169 µM
35 | O=C1CC(c2ccccc2)CC2=C1C(c1c(F)cccc1Cl)Nc1ccccc1N2 (centres unmarked) [Compound 6237973] | 19.49 ± 0.169 µM | 22.6 ± 0.68 µM | 19.49 ± 0.169 µM | –
36 | COc1ccc(C2CC(=O)C3=C(C2)Nc2ccccc2NC3c2cccc(C(F)(F)F)c2)cc1OC (centres unmarked) [Compound 6238475] | 12.5 ± 0.17 µM | 18.81 ± 0.157 µM | 12.5 ± 0.17 µM | –
37 | COc1ccc(C2CC(=O)C3=C(C2)Nc2ccccc2NC3c2cccc(Br)c2)cc1OC (centres unmarked) [Compound 6239538] | 12.5 ± 0.177 µM | 15.5 ± 0.243 µM | 12.5 ± 0.177 µM | –
38 | COc1ccc(C2CC(=O)C3=C(C2)Nc2ccccc2NC3c2ccc(-c3ccccc3)cc2)cc1OC (centres unmarked) [Compound 6239945, 11-(4-biphenylyl)-3-(3,4-dimethoxyphenyl)-2,3,4,5,10,11-hexahydro-1H-dibenzo[b,e][1,4]diazepin-1-one] | – | – | – | 21.8 ± 2.97 µM
39 | COc1ccc(C2CC(=O)C3=C(C2)Nc2ccccc2NC3c2ccccc2[N+](=O)[O-])cc1OC (centres unmarked) [Compound 6240043] | 39.6 ± 1.99 µM | – | – | –
40 | COc1ccc(C2CC(=O)C3=C(C2)Nc2ccccc2NC3c2c(F)cccc2F)cc1 (centres unmarked) [Compound 6241186] | 25 ± 0.175 µM | – | – | –
41 | O=C1CC(c2ccccc2)CC2=C1C(c1cccc3ccccc13)Nc1ccccc1N2 (centres unmarked) [Compound 6366991] | 22.2 ± 2.8 µM | – | – | –
